Assay results reported in paper PMC7362424, “Structural elucidation, molecular docking, α-amylase and α-glucosidase inhibition studies of 5-amino-nicotinic acid derivatives” (BMC Chemistry, 2020).

Melting point, > 300 °C:
O=C(O)c1cncc(NC(=S)Nc2ccccc2)c1 [Compound 1, 5-(3-Phenylthioureido)pyridine-3-carboxylic acid]
O=C(O)c1cncc(NC(=S)Nc2ccc(Cl)cc2)c1 [Compound 2, 5-(3-(4-Chlorophenyl)thioureido)pyridine-3-carboxylic acid]
Cc1ccc(NC(=S)Nc2cncc(C(=O)O)c2)cc1 [Compound 3, 5-(3-p-Tolylthioureido)pyridine-3-carboxylic acid]
O=C(O)c1cncc(NC(=S)Nc2ccc(F)cc2)c1 [Compound 4, 5-(3-(4-Fluorophenyl)thioureido)pyridine-3-carboxylic acid]
O=C(O)c1cncc(NC(=S)Nc2ccc([N+](=O)[O-])cc2)c1 [Compound 5, 5-(3-(4-Nitrophenyl)thioureido) pyridine-3-carboxylic acid]
COc1ccc(NC(=S)Nc2cncc(C(=O)O)c2)cc1 [Compound 6, 5-(3-(4-Methoxyphenyl)thioureido) pyridine-3-carboxylic acid]
O=C(O)c1cncc(NC(=S)Nc2ccc(Br)cc2)c1 [Compound 7, 5-(3-(4-Bromophenyl)thioureido) pyridine-3-carboxylic acid]
O=C(O)c1cncc(NC(=S)Nc2ccc(C(F)(F)F)cc2)c1 [Compound 8, 5-(3-(4-(Trifluoromethyl)phenyl)thioureido) pyridine-3-carboxylic acid]
Cc1ccc(NC(=S)Nc2cncc(C(=O)O)c2)cc1Cl [Compound 9, 5-(3-(3-Chloro-4-methylphenyl)thioureido) pyridine-3-carboxylic acid]
O=C(O)c1cncc(NC(=S)Nc2ccccc2F)c1 [Compound 10, 5-(3-(2-Fluorophenyl)thioureido) pyridine-3-carboxylic acid]
O=C(O)c1cncc(NC(=S)Nc2cccc(F)c2)c1 [Compound 11, 5-(3-(3-Fluorophenyl)thioureido) pyridine-3-carboxylic acid]
O=C(O)c1cncc(NC(=S)Nc2ccccc2Br)c1 [Compound 12, 5-(3-(2-Bromophenyl)thioureido) pyridine-3-carboxylic acid]
O=C(O)c1cncc(NC(=S)Nc2cccc(Br)c2)c1 [Compound 13, 5-(3-(3-Bromophenyl)thioureido) pyridine-3-carboxylic acid]
